Literature values in patent publication US11850218B2, “Nutraceutical compositions and methods for dietary alleviation of Polycystic Ovary Syndrome” (Provation Life LLC, priority 2022, dated 2023).

Experiments:
[1] = test system: cellular sensitivity to insulin

Compound | anti-androgenic effect (hyperandrogenism) | cellular sensitivity to insulin / insulin resistance [1] | other results
[Mg+2] [Magnesium] | show anti-androgenic effects | – | production of lutenizing hormone (hyperandrogenism; supplementation): seems to have a positive effect
COc1cc(/C=C/C(=O)CC(=O)/C=C/c2ccc(O)c(OC)c2)ccc1O [Curcumin] | – | increases cellular sensitivity to insulin | –
chromium (III) picolinate | produces an anti-androgenic effect | positive effect upon cellular sensitivity to insulin | free testosterone levels (hyperandrogenism; PCOS cases): lowering free testosterone levels
O[C@H]1[C@H](O)[C@@H](O)[C@H](O)[C@@H](O)[C@H]1O [myo-inositol] | significant anti-androgenic effect | increase cellular sensitivity to insulin | menstruation / menstrual cyclicity (PCOS cases): restoration of normal menstruation
[Zn] [Zinc] | show anti-androgenic effects | – | production of progesterone (hyperandrogenism; supplementation): increase production
CC[C@H](C)C(=O)O[C@H]1C[C@@H](C)C=C2C=C[C@H](C)[C@H](CC[C@@H]3C[C@@H](O)CC(=O)O3)[C@H]21 [Monacolin K] | provides an anti-androgenic effect | – | –
COc1ccc2cc3[n+](cc2c1OC)CCc1cc2c(cc1-3)OCO2 [Berberine] | – | decrease insulin resistance | –
